Experimental data taken from patent US12157736B2, “Spiro-lactam NMDA modulators and methods of using same” (Tenacia Biotechnology (Hong Kong) Co., Limited, priority 2016, dated 2024).

What was measured:
[1] = biological target: T1, NMDAR2B (Homo sapiens, UniProt Q13224); test: NMDAR agonist assay, [3H]MK-801 binding, NMDAR2B expressing HEK cell membranes; format: biochemical; conditions: 50 μM glutamate; for EC50: read-out: NMDAR2B log EC50 (converted); for Emax: read-out: NMDAR2B: % maximal [3H]MK-801 binding relative to 1 mM glycine
T1 construct: expressed in transfected cells; host or cells: HEK cells (membrane extract)
Method: (§1) Assays were conducted as described by Moskal et al., “GLYX-13: a monoclonal antibody-derived peptide that acts as an N-methyl-D-aspartate receptor modulator,” Neuropharmacology, 49, 1077-87, 2005. These studies were designed to determine if the test compounds act to facilitate NMDAR activation in NMDAR2A, NMDAR2B, NMDAR2C or NMDAR2D expressing HEK cell membranes as measured by increases in [^3H]MK-801 binding.
(§2) In the assay, 300 μg of NMDAR expressing HEK cell membrane extract protein was preincubated for 15 minutes at 25° C. in the presence of saturating concentrations of glutamate (50 μM) and varying concentrations of test compound (1×10^−15M−1×10^−7M), or 1 mM glycine. Following the addition of […] of [^3H]MK-801 (22.5 Ci/mmol), reactions were again incubated for 15 minutes at 25° C. (nonequilibrium conditions). Bound and free [^3H]MK-801 were separated via rapid filtration using a Brandel apparatus.
(§3) In analyzing the data, the DPM (disintegrations per minute) of [^3H]MK-801 remaining on the filter were measured for each concentration of test compound or for 1 mM glycine. The DPM values for each concentration of a ligand (N=2) were averaged. The baseline value was determined from the best fit curve of the DPM values modeled using the GraphPad program and the log(agonist) vs. response (three parameters) algorithm was then subtracted from all points in the dataset. The % maximal [3H]MK-801 binding was then calculated relative to that of 1 mM glycine: all baseline subtracted DPM values were divided by the average value for 1 mM glycine. The EC50 and % maximal activity were then obtained from the best fit curve of the % maximal [3H]MK-801 binding data modelled using the GraphPad program and the log(agonist) vs. response (three parameters) algorithm.
(§4) The tables below summarize the results for the wild type […] NMDAR2A, NMDAR2B, NMDAR2C, and NMDAR2D, and whether the compound is not an agonist (−), is an agonist (+), or is a strong agonist (++), where column A is based on the % maximal [3H]MK-801 binding relative to 1 mM glycine (−=0; <100%=+; and >100%=++); and column B is based on log EC50 values (0=−; ≥1×10^−9 M (e.g., −8)=+; and <1×10^−9 M (e.g., −10)=++).

[2] = biological target: T2, NMDAR2A (Homo sapiens, UniProt Q12879); test: NMDAR agonist assay, [3H]MK-801 binding, NMDAR2A expressing HEK cell membranes; format: biochemical; conditions: 50 μM glutamate; for EC50: read-out: NMDAR2A: log EC50 (converted); for Emax: read-out: NMDAR2A: % maximal [3H]MK-801 binding relative to 1 mM glycine
T2 construct: expressed in transfected cells; host or cells: HEK cells (membrane extract)
Method: as §1, §2, §3, §4

[3] = IV pharmacokinetics; format: in vivo, Sprague Dawley rats; conditions: rat, 2 mg/kg, normal saline
Method: Sprague Dawley rats were dosed intravenously using a normal saline formulation containing 2 mg/kg of the compounds identified in the below table. The table below summarizes the results of the IV pharmacokinetics.

T2 sequence (Q12879 23-1464, species assumed, other chains not shown): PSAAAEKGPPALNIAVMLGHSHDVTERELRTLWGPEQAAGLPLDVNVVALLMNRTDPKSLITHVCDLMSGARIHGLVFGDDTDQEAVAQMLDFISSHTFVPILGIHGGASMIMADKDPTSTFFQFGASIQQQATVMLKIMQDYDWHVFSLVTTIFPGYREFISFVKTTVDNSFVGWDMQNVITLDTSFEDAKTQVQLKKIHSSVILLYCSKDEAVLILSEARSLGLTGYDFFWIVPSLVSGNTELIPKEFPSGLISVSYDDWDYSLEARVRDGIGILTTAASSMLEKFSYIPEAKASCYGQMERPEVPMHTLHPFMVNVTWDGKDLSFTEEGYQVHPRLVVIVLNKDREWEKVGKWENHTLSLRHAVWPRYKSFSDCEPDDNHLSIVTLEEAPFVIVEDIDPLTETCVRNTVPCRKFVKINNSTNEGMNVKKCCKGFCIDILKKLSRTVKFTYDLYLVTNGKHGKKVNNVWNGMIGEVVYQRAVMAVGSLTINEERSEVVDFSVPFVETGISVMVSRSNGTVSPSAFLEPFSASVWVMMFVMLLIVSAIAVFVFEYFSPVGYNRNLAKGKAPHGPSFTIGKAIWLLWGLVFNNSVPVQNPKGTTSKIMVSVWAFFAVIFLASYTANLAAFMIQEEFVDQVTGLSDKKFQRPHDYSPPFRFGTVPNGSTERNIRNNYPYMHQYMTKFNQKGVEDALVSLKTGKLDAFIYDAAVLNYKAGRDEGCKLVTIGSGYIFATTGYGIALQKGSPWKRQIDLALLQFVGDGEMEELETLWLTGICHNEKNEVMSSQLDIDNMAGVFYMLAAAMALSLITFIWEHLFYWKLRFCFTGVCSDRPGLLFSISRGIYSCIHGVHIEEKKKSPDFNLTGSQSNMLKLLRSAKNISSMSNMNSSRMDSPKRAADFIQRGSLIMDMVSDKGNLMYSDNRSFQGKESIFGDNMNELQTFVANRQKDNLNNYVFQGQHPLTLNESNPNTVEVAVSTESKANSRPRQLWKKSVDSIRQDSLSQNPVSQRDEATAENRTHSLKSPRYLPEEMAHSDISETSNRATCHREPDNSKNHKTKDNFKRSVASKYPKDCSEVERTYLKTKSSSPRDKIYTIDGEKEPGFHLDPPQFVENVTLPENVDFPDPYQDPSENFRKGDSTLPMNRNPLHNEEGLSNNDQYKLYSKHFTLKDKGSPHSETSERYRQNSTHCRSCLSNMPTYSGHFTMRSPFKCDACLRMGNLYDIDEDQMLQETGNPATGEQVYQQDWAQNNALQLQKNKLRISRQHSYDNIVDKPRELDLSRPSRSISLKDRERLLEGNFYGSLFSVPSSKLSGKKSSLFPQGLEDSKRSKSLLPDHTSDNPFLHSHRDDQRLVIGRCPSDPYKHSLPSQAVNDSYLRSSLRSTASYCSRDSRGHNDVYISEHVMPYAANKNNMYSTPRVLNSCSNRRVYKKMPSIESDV
T1 sequence (Q13224 27-1484, species assumed, other chains not shown): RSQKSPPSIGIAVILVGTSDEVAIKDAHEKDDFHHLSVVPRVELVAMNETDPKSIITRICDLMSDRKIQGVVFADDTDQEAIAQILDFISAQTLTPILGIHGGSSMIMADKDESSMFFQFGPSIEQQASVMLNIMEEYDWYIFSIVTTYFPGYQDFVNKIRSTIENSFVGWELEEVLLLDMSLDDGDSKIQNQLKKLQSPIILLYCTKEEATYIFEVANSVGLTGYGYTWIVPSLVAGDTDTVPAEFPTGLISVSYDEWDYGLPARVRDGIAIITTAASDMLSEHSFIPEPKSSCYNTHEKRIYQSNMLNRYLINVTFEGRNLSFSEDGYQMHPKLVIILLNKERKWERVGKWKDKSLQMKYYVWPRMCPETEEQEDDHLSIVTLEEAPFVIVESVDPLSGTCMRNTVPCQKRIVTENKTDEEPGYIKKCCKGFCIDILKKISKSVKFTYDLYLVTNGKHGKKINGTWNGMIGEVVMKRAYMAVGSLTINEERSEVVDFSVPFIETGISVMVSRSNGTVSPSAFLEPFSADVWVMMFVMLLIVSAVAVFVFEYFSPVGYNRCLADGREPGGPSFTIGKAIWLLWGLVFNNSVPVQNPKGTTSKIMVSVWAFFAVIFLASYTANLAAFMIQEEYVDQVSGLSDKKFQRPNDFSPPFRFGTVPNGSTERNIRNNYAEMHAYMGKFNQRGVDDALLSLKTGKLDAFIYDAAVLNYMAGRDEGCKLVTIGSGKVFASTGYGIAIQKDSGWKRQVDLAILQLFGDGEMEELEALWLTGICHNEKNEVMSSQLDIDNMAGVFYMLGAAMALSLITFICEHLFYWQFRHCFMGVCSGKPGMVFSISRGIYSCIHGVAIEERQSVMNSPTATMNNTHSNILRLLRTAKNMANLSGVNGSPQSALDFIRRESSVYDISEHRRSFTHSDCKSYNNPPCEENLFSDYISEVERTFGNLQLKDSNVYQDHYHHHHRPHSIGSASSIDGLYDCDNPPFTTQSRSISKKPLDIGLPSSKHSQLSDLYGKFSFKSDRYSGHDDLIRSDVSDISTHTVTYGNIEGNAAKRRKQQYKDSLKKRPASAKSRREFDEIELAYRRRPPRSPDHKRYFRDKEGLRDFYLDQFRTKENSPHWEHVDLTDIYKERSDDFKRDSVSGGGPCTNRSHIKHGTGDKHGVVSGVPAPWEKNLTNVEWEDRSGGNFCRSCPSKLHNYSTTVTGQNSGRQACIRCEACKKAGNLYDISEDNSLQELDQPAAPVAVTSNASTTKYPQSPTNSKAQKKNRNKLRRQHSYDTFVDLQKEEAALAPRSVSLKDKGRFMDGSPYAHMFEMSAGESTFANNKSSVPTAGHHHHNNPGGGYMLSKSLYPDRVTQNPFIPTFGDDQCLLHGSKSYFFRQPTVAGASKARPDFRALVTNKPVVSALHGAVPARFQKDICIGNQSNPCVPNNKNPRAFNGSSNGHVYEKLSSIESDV

SMILES: CC1CC(=O)N(c2ccc(F)cc2)C12CN(Cc1ccccc1)C2=O (single isomer, unassigned) [BX, 2-benzyl-5-(4-fluorophenyl)-8-methyl-2,5-diazaspiro[3.4]octane-1,6-dione]
- NMDAR2B: % maximal [3H]MK-801 binding relative to 1 mM glycine [1]: + (<100%=+)
- EC50 [2]: > 100 nM

SMILES: CC1CC(=O)N(c2ccc(F)cc2)C12CN(Cc1ccccc1)C2=O (single isomer, unassigned) [BY, 2-benzyl-5-(4-fluorophenyl)-8-methyl-2,5-diazaspiro[3.4]octane-1,6-dione]
- NMDAR2B: % maximal [3H]MK-801 binding relative to 1 mM glycine [1]: − (−=0)
- EC50 [1]: > 100 nM
- NMDAR2A: % maximal [3H]MK-801 binding relative to 1 mM glycine [2]: − (−=0)

SMILES: C[C@@H](O)[C@@H](C(=O)NCc1ccccc1)N1CC2(CCNC(=O)C2)C1=O (single isomer, unassigned) [CA]
- NMDAR2B: % maximal [3H]MK-801 binding relative to 1 mM glycine [1]: − (−=0)
- EC50 [1]: > 100 nM
- EC50 [2]: > 100 nM

SMILES: C[C@@H](O)[C@@H](C(=O)N(C)C)N1CC2(CCNC(=O)C2)C1=O (single isomer, unassigned) [CC]
- Emax [2]: 0%
- EC50 [2]: > 100 nM
- CI [3]: 15.65 mL/min/kg

SMILES: C[C@@H](O)[C@@H](C(=O)N(C)C)N1CC2(CCNC(=O)C2)C1=O (single isomer, unassigned) [CD]
- Emax [2]: < 100%

SMILES: CC1CC(=O)N(c2ccc(F)cc2)C12CN(CC(N)=O)C2=O (single isomer, unassigned) [CE, 2-(5-(4-fluorophenyl)-8-methyl-1,6-dioxo-2,5-diazaspiro[3.4]octan-2-yl)acetamide]
- NMDAR2B: % maximal [3H]MK-801 binding relative to 1 mM glycine [1]: − (−=0)
- EC50 [1]: > 100 nM
- EC50 [2]: > 100 nM

SMILES: CC1CC(=O)N(c2ccc(F)cc2)C12CN(CC(N)=O)C2=O (single isomer, unassigned) [CF, 2-(5-(4-fluorophenyl)-8-methyl-1,6-dioxo-2,5-diazaspiro[3.4]octan-2-yl)acetamide]
- NMDAR2B: % maximal [3H]MK-801 binding relative to 1 mM glycine [1]: + (<100%=+)
- NMDAR2A: % maximal [3H]MK-801 binding relative to 1 mM glycine [2]: − (−=0)

SMILES: CC1C(N)C(=O)N(C)C12CN(Cc1ccccc1)C2=O (single isomer, unassigned) [CG, 7-amino-2-benzyl-5,8-dimethyl-2,5-diazaspiro[3.4]octane-1,6-dione]
- NMDAR2B: % maximal [3H]MK-801 binding relative to 1 mM glycine [1]: + (<100%=+)
- EC50 [2]: > 100 nM

SMILES: CC1C(N)C(=O)N(C)C12CN(Cc1ccccc1)C2=O (single isomer, unassigned) [CH, 7-amino-2-benzyl-5,8-dimethyl-2,5-diazaspiro[3.4]octane-1,6-dione]
- NMDAR2B: % maximal [3H]MK-801 binding relative to 1 mM glycine [1]: − (−=0)
- EC50 [1]: > 100 nM
- NMDAR2A: % maximal [3H]MK-801 binding relative to 1 mM glycine [2]: − (−=0)

SMILES: COc1ccc(CN2CC3(CCN(C)C(=O)C3)C2=O)cc1 (single isomer, unassigned) [CI, 2-(4-methoxybenzyl)-7-methyl-2,7-diazaspiro[3.5]nonane-1,6-dione]
- CI [3]: 32 mL/min/kg

SMILES: COc1ccc(CN2CC3(CCN(C)C(=O)C3)C2=O)cc1 (single isomer, unassigned) [CJ, 2-(4-methoxybenzyl)-7-methyl-2,7-diazaspiro[3.5]nonane-1,6-dione]
- Emax [1]: > 100%

SMILES: CCN1CCC2(CC1=O)CN(Cc1ccc(OC)cc1)C2=O (single isomer, unassigned) [CK, 7-ethyl-2-(4-methoxybenzyl)-2,7-diazaspiro[3.5]nonane-1,6-dione]
- NMDAR2B: % maximal [3H]MK-801 binding relative to 1 mM glycine [1]: − (−=0)
- EC50 [1]: > 100 nM
- NMDAR2A: % maximal [3H]MK-801 binding relative to 1 mM glycine [2]: − (−=0)
- EC50 [2]: > 100 nM

SMILES: COc1ccc(CN2CC3(CCNC(=S)C3)C2=O)cc1 (single isomer, unassigned) [CM, 2-(4-methoxybenzyl)-6-thioxo-2,7-diazaspiro[3.5]nonan-1-one]
- EC50 [1]: > 100 nM
- EC50 [2]: > 100 nM

SMILES: COc1ccc(CN2CC3(CCNC(=S)C3)C2=S)cc1 (single isomer, unassigned) [CO, 2-(4-methoxybenzyl)-2,7-diazaspiro[3.5]nonane-1,6-dithione]
- EC50 [1]: > 100 nM
- Emax [1]: 0%

SMILES: COc1ccc(CN2CC3(CCNC(=S)C3)C2=S)cc1 (single isomer, unassigned) [CP, 2-(4-methoxybenzyl)-2,7-diazaspiro[3.5]nonane-1,6-dithione]
- Emax [1]: < 100%

SMILES: COc1ccc(CN2CC3(CCN(CC(C)C)C(=O)C3)C2=O)cc1 (single isomer, unassigned) [CS, 7-isobutyl-2-(4-methoxybenzyl)-2,7-diazaspiro[3.5]nonane-1,6-dione]
- Emax [1]: > 100%

SMILES: COc1ccc(CN2CC3(CCN(CC(C)C)C(=O)C3)C2=O)cc1 (single isomer, unassigned) [CT, 7-isobutyl-2-(4-methoxybenzyl)-2,7-diazaspiro[3.5]nonane-1,6-dione]
- EC50 [1]: > 100 nM
- Emax [1]: 0%

SMILES: O=C1CC2(CCN1)CN(Cc1ccccc1)C2=O (single isomer, unassigned) [CU, 2-benzyl-2,7-diazaspiro[3.5]nonane-1,6-dione]
- Emax [2]: 0%
- EC50 [2]: > 100 nM

SMILES: O=C1CC2(CCN1)CN(Cc1ccccc1)C2=O (single isomer, unassigned) [CV, 2-benzyl-2,7-diazaspiro[3.5]nonane-1,6-dione]
- Emax [2]: < 100%

SMILES: CN1CCC2(CC1=O)CN(Cc1ccccc1)C2=O (single isomer, unassigned) [CX, 2-benzyl-7-methyl-2,7-diazaspiro[3.5]nonane-1,6-dione]
- NMDAR2B: % maximal [3H]MK-801 binding relative to 1 mM glycine [1]: + (<100%=+)
- NMDAR2A: % maximal [3H]MK-801 binding relative to 1 mM glycine [2]: + (<100%=+)

SMILES: CCN1CCC2(CC1=O)CN(Cc1ccccc1)C2=O (single isomer, unassigned) [CY, 2-benzyl-7-ethyl-2,7-diazaspiro[3.5]nonane-1,6-dione]
- EC50 [1]: > 100 nM

SMILES: CNC(=O)[C@H]([C@@H](C)O)N1CC2(CCNC(=O)C2)C1=O (single isomer, unassigned) [DA]
- NMDAR2B: % maximal [3H]MK-801 binding relative to 1 mM glycine [1]: − (−=0)
- EC50 [1]: > 100 nM
- EC50 [2]: > 100 nM

SMILES: CNC(=O)[C@H]([C@@H](C)O)N1CC2(CCNC(=O)C2)C1=O (single isomer, unassigned) [DB]
- NMDAR2B: % maximal [3H]MK-801 binding relative to 1 mM glycine [1]: ++ (>100%=++)
- NMDAR2A: % maximal [3H]MK-801 binding relative to 1 mM glycine [2]: − (−=0)

SMILES: NC(=O)CN1CC2(CCNC(=O)C2)C1=O (single isomer, unassigned) [DC, 2-(1,6-dioxo-2,7-diazaspiro[3.5]nonan-2-yl)acetamide]
- Emax [2]: < 100%

SMILES: NC(=O)CN1CC2(CCNC(=O)C2)C1=O (single isomer, unassigned) [DD, 2-(1,6-dioxo-2,7-diazaspiro[3.5]nonan-2-yl)acetamide]
- Emax [2]: 0%
- EC50 [2]: > 100 nM

SMILES: CN1CC2(CCNC(=O)C2)C1=O (single isomer, unassigned) [DG, 2-methyl-2,7-diazaspiro[3.5]nonane-1,6-dione]
- EC50 [1]: > 100 nM
- Emax [1]: 0%

SMILES: CN1CC2(CCNC(=O)C2)C1=O (single isomer, unassigned) [DH, 2-methyl-2,7-diazaspiro[3.5]nonane-1,6-dione]
- Emax [1]: > 100%

SMILES: CC1CC(=O)N(C)C12CN(CC(N)=O)C2=O (single isomer, unassigned) [DI, 2-(5,8-dimethyl-1,6-dioxo-2,5-diazaspiro[3.4]octan-2-yl)acetamide]
- Emax [2]: < 100%

SMILES: CC1CC(=O)N(C)C12CN(CC(N)=O)C2=O (single isomer, unassigned) [DJ, 2-(5,8-dimethyl-1,6-dioxo-2,5-diazaspiro[3.4]octan-2-yl)acetamide]
- Emax [2]: 0%
- EC50 [2]: > 100 nM

SMILES: CC1CC(=O)N(c2ccc(F)cc2)C12CN([C@H](C(N)=O)[C@@H](C)O)C2=O (single isomer, unassigned) [DK]
- EC50 [1]: > 100 nM

SMILES: CC1CC(=O)N(c2ccc(F)cc2)C12CN([C@H](C(N)=O)[C@@H](C)O)C2=O (single isomer, unassigned) [DL]
- NMDAR2B: % maximal [3H]MK-801 binding relative to 1 mM glycine [1]: − (−=0)
- NMDAR2A: % maximal [3H]MK-801 binding relative to 1 mM glycine [2]: + (<100%=+)

SMILES: CC1C(O)C(=O)N(C)C12CN(Cc1ccccc1)C2=O (single isomer, unassigned) [DM, 2-benzyl-7-hydroxy-5,8-dimethyl-2,5-diazaspiro[3.4]octane-1,6-dione]
- EC50 [1]: > 100 nM
